Key:
[1] = system: neuropathic pain (mechanical allodynia) in SCI, LSS and SNI animal models; assay: Mechanical allodynia (von Frey, 50% threshold) in SCI, LSS and SNI neuropathic pain models; assay type: in vivo, Sprague-Dawley rats; conditions: i.p. 5 mg/kg; at 1 hour after administration
Experimental: To be used as a central nerve injury animal model, a traumatic spinal cord injury (SCI) model was prepared (FIG. 1A). Specifically, 230 to 250 g of male adult Sprague-Dawley rats were anesthetized by intraperitoneal injection of chloral hydrate (500 mg/kg), and then the back and neck regions were shaved, and the spinal cord under the back and neck regions was exposed without damaging the dura mater, and a laminectomy was performed at T9 to T10 levels. To stabilize the spine, the spinous processes of T8 and T11 were fixed, and the spine was damaged by free-falling a 10 g weight from a height of 25 mm using an NYU impactor onto the back surface of the exposed spinal cord and then the rats were left in a temperature and humidity-controlled chamber overnight while covering the muscles and skin. After surgery, the rats were subcutaneously injected with a supplement solution (5 ml, lactated ringer) and injected with antibiotics (gentamicin, 5 mg/kg, intramuscular injection) once daily for 5 days. The body weight, remaining food, and the weight of water were confirmed and recorded for all animals, and the bladder was emptied twice daily by passive bladder massage until reflex micturition was established. At this time, a Sham group was a group that was subjected to only laminectomy without damage.
To be used as a peripheral nerve injury animal model, a lumbar spinal stenosis (LSS) model was prepared (FIG. 1B). Specifically, 260 to 280 g of adult male Sprague-Dawley rats were anesthetized with intraperitoneal injection of chloral hydrate (500 mg/kg), the back region was shaved, and then the spinal plate was exposed at L4 to S2 levels. After removing the ligamentous section between L4 and L5, a trapezoidal silicone block (1.00 mm long×1.3 to 1.2 mm wide×1.0 mm high) was inserted into the epidural space below the L5 and L6 spinal plates without damaging the dural sac. At this time, a Sham group was a group that was subjected to only posterior […] on the animal without inserting a silicone block.
To be used as a peripheral nerve injury animal model, a sciatic nerve injury (SNI) model was prepared (FIG. 1C). Specifically, 200 to 220 g of male adult Sprague-Dawley rats were anesthetized by intraperitoneal injection of chloral hydrate (500 mg/kg), and then three terminal branches (tibial, common peroneal, and sural nerves) of the right sciatic nerve were approached, and the tibia nerve and the peroneal nerve were tightly ligated with 4-0 silk, and neurectomy was performed at a distal 3 mm position of the ligation site. At this time, a Sham group was a group that exposed only the sciatic nerve without damage.
In order to confirm a neuropathic pain inhibitory effect of YJ102 (Chemical Formula 1), a compound of the present disclosure, in the three nerve injury animal models prepared in Example 1 above, rats having pain on week 3 (SNI model) or week 4 (SCI model and LSS model) after surgery were selected and administered orally (p.o.) at 10 mg/kg or 20 mg/kg of YJ102 dissolved in a solution of DMSO, methyl pyrrolidinone, and water (1:1.5:1), or intraperitoneally injected (i.p. injection) at 1, 2, or 5 mg/kg of YJ102. In a positive control group, gabapentin or pregabalin dissolved in saline was intraperitoneally injected at a concentration of 5 mg/kg, and in a Vehicle group, the same amount of a solution of DMSO, methyl pyrrolidinone, and water was administered. Thereafter, in order to measure mechanical allodynia, the rats were located at the bottom of a transparent plastic box (10 cm×10 cm) on top of a wire mesh (3 mm×3 mm) and subjected to an adaptation period for approximately 20 minutes. Von-Frey filaments were applied to the soles of both paws and used with stiff nylon von-Frey monofilament series ([…], Stoelting, WoodDale, IL, USA; equivalent in grams to 0.4, 0.6, 1.0, 2.0, 4.0, 6.0, 8.0 and 15.0) with logarithmic increases in tactile (mechanical) sensitivity. […]

sedation = assay: Sedation as side effect of the drug; assay type: in vivo, Sprague-Dawley rats

Row | SMILES | analgesic effect [1] | sedation (sedation; 50 mg/kg) | sedation (sedation; 20 mg/kg)
1 | NCC1(CC(=O)O)CCCCC1 [gabapentin, reference compound] | significant analgesic effect | sedation as a side effect of the drug was observed | 
2 | CC(C)C[C@H](CN)CC(=O)O [pregabalin, reference compound] | significant analgesic effect |  | sedation as a side effect of the drug was observed
